Assay results taken from publication PMC5748751, “Study of Structure and Permeability Relationship of Flavonoids in Caco-2 Cells” (Nutrients, 2017).
Where two headings read alike, the source gives them in different places. Marks after values point to notes of the source that are not given here.

Key:
[1] = Permeability (bidirectional transport) of flavonoids in Caco-2 cell monolayers; format: in vitro ADME; conditions: human; for Papp A→B at 60 min, 40 μM: Caco-2, apical to basolateral; for Papp A→B at 60 min, 40 μM / Papp B→A at 60 min, 40 μM: incubation 60 min, 37 °C, D-Hank's pH 7.4, mean ± SD, n = 3–6; for Papp B→A at 60 min, 40 μM: Caco-2, basolateral to apical; for Papp at 1 h, 40 μM: Caco-2 monolayer
Experimental: Caco-2 cells were cultured in MEM supplemented with 10% FBS, 1% NEAA, penicillin (100 U/mL) and streptomycin (100 μg/mL) in an atmosphere of 5% CO2 and 90% relative humidity at 37 °C. All cells used in this study were between passages 35 and 45 [16].
Caco-2 cells were seeded at a density of about 8 × 10^4 cells/cm^2 on a 12 wells Millicell hanging insert and left to grow for 19–21 days to reach confluence. Culture medium was replaced every other day for 14 days and daily thereafter. The integrity and transport ability of the Caco-2 cells monolayer were examined by measuring the trans-epithelial electrical resistance (TEER) with a Millicell voltammeter (Millicell ERS-2, Merck Millipore, Billerica, MA, USA) and running standard assays using Lucifer yellow CH as paracellular flux marker. […] Differentiation of Caco-2 cells was checked after 4 and 12 days by determining the activity of alkaline phosphatase with an assay kit (Nanjing Jiancheng Bioengineering Institute, Nanjing, China) and after 21 days transmission electron microscopy was performed on Caco-2 monolayer to evaluate differentiation.
The Caco-2 cell monolayer was washed with D-Hank’s buffer (pH 7.4). Then, the flavonoid (40 μM) was added to either the apical (AP, 0.4 mL) or basolateral (BL, 1.95 mL) side, while the receiving chamber contained the corresponding volume of D-Hank’s buffer and incubated for 1 h at 37 °C. Solutions from both AP and BL sides of Caco-2 cell monolayer were collected and immediately frozen, lyophilized and preserved at −80 °C for high performance liquid chromatography (HPLC) analysis. Papp was calculated from Equation (1), where ΔQ/Δt is the rate of the flavonoid on the accepting chamber (μM/s), A is the surface area of the hanging insert (cm^2) and C0 is the initial concentration of tested flavonoid in donating chamber (μM/mL).(1) Papp=ΔQ/Δt/AC0

Caco-2 cell monolayer = experiment: Cellular accumulation (CA) of flavonoids in Caco-2 cell monolayer; conditions: for CA A to B: accumulated in cell monolayer after transport apical to basolateral; for CA A to B / CA B to A: 40 μM, 1 h, normalized to cellular protein, mean ± SD, n = 3; for CA B to A: accumulated in cell monolayer after transport basolateral to apical; for CA: both sides (CA A to B and CA B to A)
[2] = Cell viability (MTT) assay of flavonoids in Caco-2 cells; format: cell-based; conditions: human
Experimental: The cytotoxicity of flavonoids and colchicine was evaluated by MTT assay. The cells were grown in 96-well plates at a density of 1 × 10^4 cells/well. After incubation with 40 μM flavonoid for 24 h, the cells were further incubated with an MTT solution (0.5 mg/mL) for 4 h at 37 °C. Finally, after removal of the supernatant, 150 μL dimethyl sulphoxide was added to each well to dissolve crystallized MTT. Absorbance was read at 570 nm with a multiskan spectrum microplate reader (Thermo Labsystems, Waltham, MA, USA). The percentage cell viability relative to that of the control cells was used as the cytotoxicity measure.

[3] = Recovery (mass balance) of flavonoids during Caco-2 transport assay; format: in vitro ADME; conditions: human, Caco-2, mass balance, both sides of insert plus cells
Experimental: The recovery of the flavonoid glycosides during the transport assays was determined by mass balance and was measured as total amount of the flavonoids on both sides of the insert and in the Caco-2 cells.

[4] = Caco-2, pH 7.4, as stated in text, direction not specified (bilateral)
[5] = transport apical to basolateral, read-out: Recovery (A to B, %)
[6] = transport basolateral to apical, read-out: Recovery (B to A, %)

| SMILES | Papp A→B at 60 min, 40 μM [1] | Papp B→A at 60 min, 40 μM [1] | CA A to B (Caco-2 cell monolayer) | CA B to A (Caco-2 cell monolayer) | viability at 24 h, 40 μM [2] | Papp at 1 h, 40 μM [1, 4] | recovery [3, 5] | recovery [3, 6] | CA (Caco-2 cell monolayer) | Papp at 1 h, 40 μM ([1]; pH 7.4, direction not specified (bilateral)) |
| --- | --- | --- | --- | --- | --- | --- | --- | --- | --- | --- |
| COc1c(O)cc(O)c2c(=O)cc(-c3ccccc3)oc12 [Compound 3, Wogonin] | 16.4 ± 1.2 ×10⁻⁶ cm/s | 18.1 ± 1.62 ×10⁻⁶ cm/s | 1.038 ± 0.212 µmol/g | 1.586 ± 0.045 µmol/g | 97.7 ± 8.39% | – | – | – | – | – |
| O=c1cc(-c2ccccc2)oc2cc(O)c(O)c(O)c12 [Compound 4, Baicalein] | 1.95 ± 0.53 ×10⁻⁶ cm/s | 0.71 ± 0.21 ×10⁻⁶ cm/s | 1.182 ± 0.341 µmol/g | 3.272 ± 0.445 ^a μmol/g | 96.7 ± 6.31% | < 2 ×10⁻⁶ cm/s | – | – | – | – |
| O=c1cc(-c2ccc(O)cc2)oc2c([C@@H]3OC[C@H](O)[C@H](O)[C@H]3O)c(O)c([C@@H]3O[C@H](CO)[C@@H](O)[C@H](O)[C@H]3O)c(O)c12 [Compound 8, Schaftoside] | 3.28 ± 0.32 ×10⁻⁶ cm/s | 2.81 ± 0.24 ×10⁻⁶ cm/s | 0.024 ± 0.002 µmol/g | 0.044 ± 0.007 µmol/g | 103 ± 4.77% | < 6 ×10⁻⁶ cm/s | 72.3 ± 18.8% | 61.8 ± 0.72% | < 0.26 µmol/g | – |
| O=c1c(O)c(-c2ccccc2)oc2cc(O)cc(O)c12 [Compound 9, Galangin] | 1.94 ± 0.41 ×10⁻⁶ cm/s | 1.75 ± 0.44 ×10⁻⁶ cm/s | 3.780 ± 0.711 µmol/g | 9.286 ± 0.859 ^b μmol/g | 106 ± 7.79% | – | – | – | – | – |
| O=c1c(O)c(-c2ccc(O)cc2O)oc2cc(O)cc(O)c12 [Compound 11, Morin] | 8.23 ± 0.87 ×10⁻⁶ cm/s | 21.6 ± 0.32 ×10⁻⁶ cm/s | 0.129 ± 0.008 ^b μmol/g | 0.060 ± 0.011 µmol/g | 102 ± 3.62% | – | 81.5 ± 6.7% | 90.1 ± 1.39% | – | – |
| O=c1c(O)c(-c2ccc(O)cc2)oc2cc(O)cc(O)c12 [Compound 12, Kaempferol] | 6.68 ± 0.93 ×10⁻⁶ cm/s | 5.92 ± 0.45 ×10⁻⁶ cm/s | 8.368 ± 1.039 µmol/g | 11.887 ± 1.247 ^a μmol/g | 100 ± 4.53% | – | – | – | > 6 µmol/g | – |
| COc1ccc(-c2oc3cc(O)cc(O)c3c(=O)c2O)cc1 [Compound 13, Kaempferide] | 0.35 ± 0.06 ×10⁻⁶ cm/s | 0.23 ± 0.03 ×10⁻⁶ cm/s | 2.746 ± 0.478 ^b μmol/g | 0.496 ± 0.249 µmol/g | 102 ± 6.15% | – | – | – | – | – |
| COc1cc(-c2oc3cc(O)cc(O)c3c(=O)c2O)ccc1O [Compound 15, Isorhamnetin] | 1.09 ± 0.02 ×10⁻⁶ cm/s | 0.9 ± 0.42 ×10⁻⁶ cm/s | 0.332 ± 0.066 ^a μmol/g | 0.076 ± 0.048 µmol/g | 93.6 ± 1.22% | – | – | – | – | – |
| C[C@@H]1O[C@@H](O[C@H]2[C@H](Oc3cc(O)c4c(c3)O[C@H](c3ccc(O)cc3)CC4=O)O[C@H](CO)[C@@H](O)[C@@H]2O)[C@H](O)[C@H](O)[C@H]1O [Compound 20, Naringin] | 3.73 ± 0.73 ×10⁻⁶ cm/s | 5.09 ± 1.55 ×10⁻⁶ cm/s | 0.058 ± 0.013 µmol/g | 0.068 ± 0.011 µmol/g | 99.1 ± 4.92% | < 6 ×10⁻⁶ cm/s | 93.2 ± 7.62% | 82.9 ± 11% | – | – |
| O=C1c2c(O)cc(O)cc2OC(c2ccc(O)c(O)c2)C1O (stereo not shown) [Compound 22, Taxifolin] | 6.32 ± 1.16 ×10⁻⁶ cm/s | 26.1 ± 2.08 ×10⁻⁶ cm/s | – | – | 99.5 ± 2% | > 20 ×10⁻⁶ cm/s | – | – | not detected | – |
| COc1ccc(-c2coc3cc(O)ccc3c2=O)cc1 [Compound 23, Formononetin] | 17.4 ± 1.78 ×10⁻⁶ cm/s | 18.3 ± 1.83 ×10⁻⁶ cm/s | 3.819 ± 1.320 µmol/g | 4.842 ± 0.424 µmol/g | 94.6 ± 3.6% | > 10 ×10⁻⁶ cm/s | – | – | – | – |
| COc1cc2c(=O)c(-c3ccc(O)cc3)coc2cc1O [Compound 25, Glycitein] | 12.4 ± 0.91 ×10⁻⁶ cm/s | 6.23 ± 0.46 ×10⁻⁶ cm/s | 1.821 ± 0.774 ^a μmol/g | 0.158 ± 0.021 µmol/g | 98.3 ± 4.6% | > 10 ×10⁻⁶ cm/s | – | – | – | – |
| O=c1c(-c2ccc(O)cc2)coc2cc(O)ccc12 [Compound 26, Daidzein] | 33.9 ± 3.55 ×10⁻⁶ cm/s | 42.2 ± 3.11 ×10⁻⁶ cm/s | 0.500 ± 0.104 µmol/g | 1.236 ± 0.117 ^b μmol/g | 105 ± 4.56% | > 30 ×10⁻⁶ cm/s | – | – | – | – |
| O=c1c(-c2ccc(O)cc2)coc2cc(O)cc(O)c12 [Compound 27, Genistein] | 31.1 ± 2.13 ×10⁻⁶ cm/s | 30.5 ± 2.13 ×10⁻⁶ cm/s | 1.415 ± 0.276 µmol/g | 2.777 ± 0.220 ^b μmol/g | 103 ± 3.37% | – | – | – | < 5 µmol/g | > 30 ×10⁻⁶ cm/s |
| COc1ccc(-c2coc3cc(O)cc(O)c3c2=O)cc1 [Compound 28, Biochanin A] | 11.1 ± 0.51 ×10⁻⁶ cm/s | 10.7 ± 2.98 ×10⁻⁶ cm/s | 6.766 ± 1.583 µmol/g | 14.087 ± 1.287 ^b μmol/g | 106 ± 6.44% | > 10 ×10⁻⁶ cm/s | – | – | > 6 µmol/g | – |
| O=C(/C=C/c1ccc(O)cc1)c1ccc(O)cc1O [Compound 29, Isoliquiritigenin] | 13.8 ± 0.73 ×10⁻⁶ cm/s | 20 ± 1.29 ×10⁻⁶ cm/s | 4.393 ± 0.790 µmol/g | 8.804 ± 1.576 ^a μmol/g | 99.2 ± 7.94% | – | – | – | – | – |
| COc1ccc(CCC(=O)c2c(O)cc(O[C@@H]3O[C@H](CO)[C@@H](O)[C@H](O)[C@H]3O[C@@H]3O[C@@H](C)[C@H](O)[C@@H](O)[C@H]3O)cc2O)cc1O [Compound 30, Neohesperidin dihydrochalcone] | 4.25 ± 0.53 ×10⁻⁶ cm/s | 5.08 ± 1.08 ×10⁻⁶ cm/s | 0.096 ± 0.010 µmol/g | 0.251 ± 0.012 µmol/g | 102 ± 6.35% | < 6 ×10⁻⁶ cm/s | 78.7 ± 1.3% | 79.5 ± 1.24% | – | – |
